# How the values were obtained:
# Type in all cases: physicochemical
# [1] = Dissolution profiles, USP Method 2, dissolved content by HPLC
# Protocol: For comparison, new pseudopolymorph Ic as prepared by the procedure in Example 3 above and new amorphous 9-deoxo-9a-aza-9a-methyl-9a-homoerythromycin A as prepared by the procedure in Example 11 above were used. The comparative dissolution profiles were determined by USP Method 2, PharmaTest Dissolution Tester, PTW SII; and the content of dissolved 9-deoxo-9a-aza-9a-methyl-9a-homoerythromycin A was measured by HPLC. The data thus obtained are set forth in Table 2 below, and plotted in FIGS. 8 (pH 3) and 9 (pH 6).
# [2] = Intrinsic dissolution rate (IDR), Intrinsic Dissolution Tester, Van Kel Type; conditions: medium of pH 6 and 37° C.
# Protocol: The intrinsic dissolution rates (IDR) for the new amorphous 9-deoxo-9a-aza-9a-methyl-9a-homoerythromycin A prepared according to the procedure of Example 11, and the commercial 9-deoxo-9a-aza-9a-methyl-9a-homoerythromycin A dihydrate, in medium of pH 6 and 37° C., were determined by Intrinsic Dissolution Tester, Van Kel Type. The IDR for the new amorphous 9-deoxo-9a-aza-9a-methyl-9a-homoerythromycin A was about […], about […] higher than the IDR of the prior art, i.e. 9-deoxo-9a-aza-9a-methyl-9a-homoerythromycin A dihydrate (about 1.8 mg min^−1cm^−2).
# [3] = Hygroscopicity and stability at normal storage conditions
"Percent dissolved ([1]; pH 3, 37° C., 5 minutes) [%]","Percent dissolved ([1]; pH 3, 37° C., 10 minutes) [%]","Percent dissolved ([1]; pH 3, 37° C., 20 minutes) [%]","Percent dissolved ([1]; pH 3, 37° C., 45 minutes) [%]","Percent dissolved ([1]; pH 3, 37° C., 60 minutes) [%]","Percent dissolved ([1]; pH 6, 37° C., 5 minutes) [%]","Percent dissolved ([1]; pH 6, 37° C., 10 minutes) [%]","Percent dissolved ([1]; pH 6, 37° C., 20 minutes) [%]","Percent dissolved ([1]; pH 6, 37° C., 45 minutes) [%]","Percent dissolved ([1]; pH 6, 37° C., 60 minutes) [%]",Structure (SMILES),also measured
12.3,29.4,52.5,92.2,93.2,74.0,98.8,98.6,95.3,94.6,"CC[C@H]1OC(=O)[C@H](C)[C@@H](O[C@H]2C[C@@](C)(OC)[C@@H](O)[C@H](C)O2)[C@H](C)[C@@H](O[C@@H]2O[C@H](C)C[C@H](N(C)C)[C@H]2O)[C@](C)(O)C[C@@H](C)CN(C)[C@H](C)[C@@H](O)[C@]1(C)O [Ic, 9-deoxo-9a-aza-9a-methyl-9a-homoerythromycin A]",–
–,–,–,–,–,–,–,–,–,–,"CC[C@H]1OC(=O)[C@H](C)[C@@H](O[C@H]2C[C@@](C)(OC)[C@@H](O)[C@H](C)O2)C(C)[C@@H](O[C@@H]2O[C@H](C)C[C@H](N(C)C)[C@H]2O)[C@](C)(O)C[C@@H](C)CN(C)[C@H](C)[C@@H](O)[C@]1(C)O (stereo partly drawn) [9-deoxo-9a-aza-9a-methyl-9a-homoerythromycin A dihydrate, reference compound]","Percent dissolved ([1]; pH 3, 37° C., 5 minutes, dihydrate): 3.9%; Percent dissolved ([1]; pH 3, 37° C., 10 minutes, dihydrate): 8.1%; Percent dissolved ([1]; pH 3, 37° C., 20 minutes, dihydrate): 14.6%; Percent dissolved ([1]; pH 3, 37° C., 45 minutes, dihydrate): 26.7%; Percent dissolved ([1]; pH 3, 37° C., 60 minutes, dihydrate): 33.3%; Percent dissolved ([1]; pH 6, 37° C., 5 minutes, dihydrate): 14.5%; Percent dissolved ([1]; pH 6, 37° C., 10 minutes, dihydrate): 27.3%; Percent dissolved ([1]; pH 6, 37° C., 20 minutes, dihydrate): 44.2%; Percent dissolved ([1]; pH 6, 37° C., 45 minutes, dihydrate): 69.1%; Percent dissolved ([1]; pH 6, 37° C., 60 minutes, dihydrate): 73.7%; Intrinsic dissolution rate (IDR) ([2]; dihydrate): about 1.8 mg min^−1 cm^−2"
14.3,26.5,50.5,85.8,89.5,78.5,97.5,98.7,96.7,95.1,"CC[C@H]1OC(=O)[C@H](C)[C@@H](O[C@H]2C[C@@](C)(OC)[C@@H](O)[C@H](C)O2)C(C)[C@@H](O[C@@H]2O[C@H](C)C[C@H](N(C)C)[C@H]2O)[C@](C)(O)C[C@@H](C)CN(C)[C@H](C)[C@@H](O)[C@]1(C)O (stereo partly drawn) [Example 11, 9-deoxo-9a-aza-9a-methyl-9a-homoerythromycin A]","Specific dissolution rate as compared with the dihydrate ([1]; compared with the dihydrate): significantly better; Intrinsic dissolution rate (IDR) [2]: about 2.79 mg min^−1 cm^−2; IDR higher than the IDR of the dihydrate ([2]; relative to commercial dihydrate): about 40%; Hygroscopicity [3]: not hygroscopic; Stability (chemical stability and stability of the ""crystal"" form) ([3]; normal storage conditions): stable"

# Reference: patent US6936591B2, “Amorphous 9-deoxo-9a-aza-9a-methyl-9a-homoerythromycin A, process for preparing the same, and uses thereof” (Pliva Pharmaceutical Industry, Incorporated, priority 2002, dated 2005)
